Residues, ends and D or L forms follow the SMILES beside them.
Organism: Rattus norvegicus
Experiment: Relative biological activity in gastric contractile assay of rat (Relative activity is EC(peptide)/EC (compound 4) [EC contraction of each agonist to that of compound 4])
Type: functional, Stomach

Row | SMILES | Relative activity
1 | CC(C)C[C@@H]1NC(=O)[C@H](Cc2ccccc2)NC(=O)CCCCCNC(=O)[C@H](CCCN=C(N)N)NC(=O)[C@H](CC(C)C)NC1=O (single isomer, unassigned) | >1000
2 | CC(C)C[C@@H]1NC(=O)[C@H](Cc2ccccc2)NC(=O)CNC(=O)[C@H](CCCN=C(N)N)NC(=O)[C@H](CC(C)C)NC1=O (HELM PEPTIDE1{F.L.L.R.G}$PEPTIDE1,PEPTIDE1,1:R1-5:R2$$$V2.0) | 390
3 | CC(C)C[C@@H]1NC(=O)[C@H](CC(C)C)NC(=O)[C@H](Cc2ccccc2)NC(=O)[C@@H](N)CCCCNC(=O)[C@H](CCCN=C(N)N)NC1=O (HELM PEPTIDE1{K.F.L.L.R}$PEPTIDE1,PEPTIDE1,1:R3-5:R2$$$V2.0) | 2.4
4 | CC(C)C[C@H](NC(=O)[C@H](CC(C)C)NC(=O)[C@H](Cc1ccccc1)NC(=O)[C@@H](N)CO)C(=O)N[C@@H](CCCN=C(N)N)C(N)=O | 1
